Measured values from PubChem BioAssay AID330 (DTP/NCI, 2004).
Where “and” joins values, the source holds several entries; their conditions need not be identical. Identical values can stand only once. Inconclusive results and toxic doses are left out. Rule for the calls: active = survival T/C of 150% or more; inactive = T/C below 125% in these data.

Test system: P388 leukemia ip, CD2F1 mice, survival T/C
Test: NCI In Vivo Anticancer Drug Screen. Data for tumor model P388 Leukemia (intraperitoneal) in CD2F1 (CDF1) mice
Conditions: endpoint: median survival time, higher = longer survival
Outline: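 Mice carrying the transplanted tumor received test compound or vehicle. Survival was recorded in each group, and the value is the treated-group measurement divided by that of the vehicle-treated control group.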

[1] = dose: 50.0 mg/kg/injection, schedule: Q01DX009 (ip), vehicle: saline
[2] = dose: 100.0 mg/kg/injection, schedule: Q01DX009 (ip), vehicle: saline
[3] = dose: 200.0 mg/kg/injection, schedule: Q01DX009 (ip), vehicle: saline
[4] = dose: 50.0 mg/kg/injection, schedule: Q01DX009 (ip), vehicle: saline with Tween-80
[5] = dose: 100.0 mg/kg/injection, schedule: Q01DX009 (ip), vehicle: saline with Tween-80
[6] = dose: 200.0 mg/kg/injection, schedule: Q01DX009 (ip), vehicle: saline with Tween-80
[7] = dose: 50.0 mg/kg/injection, schedule: Q01DX005 (ip), vehicle: saline with Tween-80
[8] = dose: 100.0 mg/kg/injection, schedule: Q01DX005 (ip), vehicle: saline with Tween-80

Measured: T/C

CC(C)C1=CC2=CCC3C(C)(C(=O)O)CCCC3(C)C2CC1.[Ni] (stereo not given)
inactive: dose: 12.5 mg/kg/injection, schedule: Q01DX009 (ip), vehicle: saline 95 % of control | dose: 25.0 mg/kg/injection, schedule: Q01DX009 (ip), vehicle: saline 88 % of control | [1] 88 % of control

COc1cc(O)c(Cc2ccccc2O)c(O)c1C(=O)CCc1ccccc1
inactive: dose: 1.25 mg/kg/injection, schedule: Q01DX009 (ip), vehicle: saline with Tween-80 100 % of control | dose: 1.25 mg/kg/injection, schedule: Q01DX009 (ip), vehicle: saline 104 % of control | dose: 2.5 mg/kg/injection, schedule: Q01DX009 (ip), vehicle: saline with Tween-80 105 % of control | dose: 2.5 mg/kg/injection, schedule: Q01DX009 (ip), vehicle: saline 104 % of control | dose: 5.0 mg/kg/injection, schedule: Q01DX009 (ip), vehicle: saline with Tween-80 111 % of control | dose: 5.0 mg/kg/injection, schedule: Q01DX009 (ip), vehicle: saline 104 % of control | dose: 10.0 mg/kg/injection, schedule: Q01DX009 (ip), vehicle: saline 104 % of control | dose: 20.0 mg/kg/injection, schedule: Q01DX009 (ip), vehicle: saline 101 % of control

CC1=NN(c2cccc(S(=O)(=O)O)c2)C(=O)C1N=Nc1cc(Cl)cc(S(=O)(=O)O)c1O.O.[Cr] (stereo not given)
inactive: [1] 114 % of control | [2] 108 % of control | [3] 115 % of control

CC(C)=CCC/C(C)=C/Cc1ccccc1
inactive: [4] 101 % of control and 109 % of control | [5] 103 % of control and 110 % of control | [6] 109 % of control

CC(=O)OC(CCC1CO1)OC(C)=O (stereo not given)
inactive: [1] 100 % of control | [2] 98 % of control | [3] 100 % of control

C/C=C/C=C/C(=O)c1ccc(OC)cc1O
inactive: [4] 103 % of control and 105 % of control | [5] 101 % of control and 103 % of control | [6] 101 % of control and 106 % of control | dose: 400.0 mg/kg/injection, schedule: Q01DX009 (ip), vehicle: saline with Tween-80 106 % of control and 108 % of control

O=C1CC23CCCN2CCc2cc4c(cc2C3=C1O)OCO4 (stereo not given)
inactive: dose: 1.56 mg/kg/injection, schedule: Q01DX009 (ip), vehicle: water 98 % of control | dose: 3.13 mg/kg/injection, schedule: Q01DX009 (ip), vehicle: water 104 % of control | dose: 6.25 mg/kg/injection, schedule: Q01DX009 (ip), vehicle: water 98 % of control | dose: 12.5 mg/kg/injection, schedule: Q01DX009 (ip), vehicle: water 92 % of control | dose: 25.0 mg/kg/injection, schedule: Q01DX009 (ip), vehicle: water 88 % of control

CC(=O)Oc1ccccc1
inactive: dose: 50.0 mg/kg/injection, schedule: Q04DX003 (ip), vehicle: saline with Tween-80 103 % of control | dose: 100.0 mg/kg/injection, schedule: Q04DX003 (ip), vehicle: saline with Tween-80 100 % of control

CN(C)CC(O)C(=O)O (stereo not given)
inactive: dose: 25.0 mg/kg/injection, schedule: Q01DX005 (ip), vehicle: saline 96 % of control | dose: 50.0 mg/kg/injection, schedule: Q01DX005 (ip), vehicle: saline 98 % of control | dose: 100.0 mg/kg/injection, schedule: Q01DX005 (ip), vehicle: saline 95 % of control | dose: 200.0 mg/kg/injection, schedule: Q01DX005 (ip), vehicle: saline 96 % of control

CCOC(=O)C1=CNN=CC12C(=O)NC(=Nc1ccccc1)N2c1ccccc1 (stereo not given)
inactive: dose: 100.0 mg/kg/injection, schedule: Q04DX002 (ip), vehicle: saline with Tween-80 93 % of control | dose: 200.0 mg/kg/injection, schedule: Q04DX002 (ip), vehicle: saline with Tween-80 104 % of control | dose: 400.0 mg/kg/injection, schedule: Q04DX002 (ip), vehicle: saline with Tween-80 95 % of control

CC1=Nc2ccccc2NC(C)(C)C1
inactive: [1] 103 % of control | [2] 100 % of control | [3] 100 % of control

CCOC(=O)C1CC(c2ccccc2)=NN1c1ccccc1 (stereo not given)
inactive: dose: 25.0 mg/kg/injection, schedule: Q01DX009 (ip), vehicle: Klucel (hydroxypropylcellulose) (HPC) 96 % of control | dose: 50.0 mg/kg/injection, schedule: Q01DX009 (ip), vehicle: Klucel (hydroxypropylcellulose) (HPC) 96 % of control | dose: 100.0 mg/kg/injection, schedule: Q01DX009 (ip), vehicle: Klucel (hydroxypropylcellulose) (HPC) 99 % of control | dose: 200.0 mg/kg/injection, schedule: Q01DX009 (ip), vehicle: Klucel (hydroxypropylcellulose) (HPC) 99 % of control | dose: 400.0 mg/kg/injection, schedule: Q01DX009 (ip), vehicle: Klucel (hydroxypropylcellulose) (HPC) 96 % of control

N#Cc1ccc(-c2ccccc2)nc1Cl
inactive: dose: 25.0 mg/kg/injection, schedule: Q01DX005 (ip), vehicle: Klucel (hydroxypropylcellulose) (HPC) 98 % of control | dose: 50.0 mg/kg/injection, schedule: Q01DX005 (ip), vehicle: Klucel (hydroxypropylcellulose) (HPC) 98 % of control | dose: 100.0 mg/kg/injection, schedule: Q01DX005 (ip), vehicle: Klucel (hydroxypropylcellulose) (HPC) 93 % of control | dose: 200.0 mg/kg/injection, schedule: Q01DX005 (ip), vehicle: Klucel (hydroxypropylcellulose) (HPC) 102 % of control

O=[N+]([O-])c1ccccc1NN=NCCF
inactive: dose: 3.12 mg/kg/injection, schedule: Q01DX005 (ip), vehicle: Klucel (hydroxypropylcellulose) (HPC) 100 % of control | dose: 6.25 mg/kg/injection, schedule: Q01DX005 (ip), vehicle: Klucel (hydroxypropylcellulose) (HPC) 100 % of control | dose: 12.5 mg/kg/injection, schedule: Q01DX005 (ip), vehicle: Klucel (hydroxypropylcellulose) (HPC) 109 % of control

c1ccc(N=NC2=NN(c3ccccc3)CCS2)cc1
inactive: dose: 25.0 mg/kg/injection, schedule: Q01DX009 (ip), vehicle: saline with Tween-80 102 % of control and 107 % of control | [4] 102 % of control and 116 % of control | [5] 101 % of control and 107 % of control | [6] 100 % of control and 110 % of control

C=C(C)c1cc(C(C)(C)C)cc(C(C)(C)O)c1S(C)(=O)=O
inactive: dose: 100.0 mg/kg/injection, schedule: Q04DX003 (ip), vehicle: Klucel (hydroxypropylcellulose) (HPC) 97 % of control | dose: 200.0 mg/kg/injection, schedule: Q04DX003 (ip), vehicle: Klucel (hydroxypropylcellulose) (HPC) 98 % of control | dose: 400.0 mg/kg/injection, schedule: Q04DX003 (ip), vehicle: Klucel (hydroxypropylcellulose) (HPC) 95 % of control

CCCOc1cc2c(cc1C(C)c1ccc(OC)c(C)c1)OCO2 (stereo not given)
inactive: dose: 60.0 mg/kg/injection, schedule: Q01DX005 (ip), vehicle: saline + Tween-80 + alcohol 97 % of control | dose: 120.0 mg/kg/injection, schedule: Q01DX005 (ip), vehicle: saline + Tween-80 + alcohol 109 % of control | dose: 240.0 mg/kg/injection, schedule: Q01DX005 (ip), vehicle: saline + Tween-80 + alcohol 108 % of control

N#C/C(=C1/OC(=N)C(c2c(Cl)cccc2Cl)C1=O)c1c(Cl)cccc1Cl (stereo not given)
inactive: [7] 100 % of control | [8] 101 % of control

C[Si]1(C)CC[Si](C)(C)S1
inactive: [7] 103 % of control | [8] 108 % of control

O=S1(c2ccccc2)=NP(N2CC2)(N2CC2)=NP(N2CC2)(N2CC2)=N1 (stereo not given)
inactive: dose: 18.75 mg/kg/injection, schedule: Q04DX003 (ip), vehicle: saline 99 % of control | dose: 37.5 mg/kg/injection, schedule: Q04DX003 (ip), vehicle: saline 93 % of control | dose: 75.0 mg/kg/injection, schedule: Q04DX003 (ip), vehicle: saline 120 % of control
